{"source": "patent US20040176349A1", "about": "“Antibacterial composition” (priority 2001, published 2004)", "key": {"enterococci": {"system": "enterococci", "assay": "Checkerboard study, synergy summary of Example 2", "assay_type": "cell-based, Enterococcus", "conditions": "in words", "excerpt": "(§1) The aim of the study was to detect any synergy between PFOB and the other antibiotics. For the purposes of the study, synergy was defined in accordance with the FIC (fractional inhibitory concentration) index, as disclosed by Lorian (1991, In “Antibiotics in Laboratory Medicine” 3rd edition, Eds. Williams & Wilkins; esp. p 434-443). In essence, if the combination of test compounds gives at least a 4-fold reduction in the FIC value for each compound, then a synergy may be considered to exist (i.e. FIC of the combination <0.5=synergy; FIC 0.5-2.0=“indifference”; and FIC >2=antagonism)."}, "VRE 1662": {"system": "VRE 1662", "assay": "MIC, microbroth dilution (NCCLS), Table 1", "assay_type": "cell-based, Enterococcus", "conditions": "Enterococcus, VRE", "experimental": "(§2) The minimum inhibitory concentration (MIC) of the compounds was determined using the microbroth dilution technique in accordance with NCCLS guidelines, employing Mueller-Hinton broth (National Committee for Clinical Laboratory Standards, NCCLS, 1995 “Methods for dilution antimicrobial susceptibility tests for bacteria that grow aerobically”—approved standard M7-A5).\n(§3) The compounds were tested in isolation, at different concentrations."}, "VRE 300 1590": {"system": "VRE 300 1590", "assay": "MIC, microbroth dilution (NCCLS), Table 1", "assay_type": "cell-based, Enterococcus", "conditions": "Enterococcus, VRE", "experimental": "as §2, §3"}, "VRE 300 2043": {"system": "VRE 300 2043", "assay": "MIC, microbroth dilution (NCCLS), Table 1", "assay_type": "cell-based, Enterococcus", "conditions": "Enterococcus, VRE", "experimental": "as §2, §3"}, "VRE 300 1562": {"system": "VRE 300 1562", "assay": "MIC, microbroth dilution (NCCLS), Table 1", "assay_type": "cell-based, Enterococcus", "conditions": "Enterococcus, VRE", "experimental": "as §2, §3"}, "E. faecalis ATCC 29212": {"system": "E. faecalis ATCC 29212", "assay": "Checkerboard microdilution MIC with PFOB, Table 2", "assay_type": "cell-based", "excerpt": "as §1\n(§4) In Table 2, results in the checkerboard indicating synergy are hatched, and specific optimum synergistic combinations are boxed."}, "E. faecalis 5659 (vanA)": {"system": "E. faecalis 5659 (vanA)", "assay": "Checkerboard microdilution MIC with PFOB, Table 2", "assay_type": "cell-based", "excerpt": "as §1, §4"}, "E.faecalis 78097 (van B)": {"system": "E.faecalis 78097 (van B)", "assay": "Checkerboard microdilution MIC with PFOB, Table 2", "assay_type": "cell-based", "excerpt": "as §1, §4"}, "Enterococcus strains": {"system": "Enterococcus strains", "assay": "MIC against Enterococcus strains, summary of Example 1", "assay_type": "cell-based", "conditions": "in words", "experimental": "as §2, §3"}, "E. faecalis NCTC 5957": {"system": "E. faecalis NCTC 5957", "assay": "MIC, microbroth dilution (NCCLS), Table 1", "assay_type": "cell-based", "conditions": "Enterococcus faecalis, NCTC5957", "experimental": "as §2, §3"}, "E. faecium NCTC 7171": {"system": "E. faecium NCTC 7171", "assay": "MIC, microbroth dilution (NCCLS), Table 1", "assay_type": "cell-based", "conditions": "Enterococcus faecium, NCTC7171", "experimental": "as §2, §3"}, "E. hirae ATCC 10541": {"system": "E. hirae ATCC 10541", "assay": "MIC, microbroth dilution (NCCLS), Table 1", "assay_type": "cell-based", "conditions": "Enterococcus hirae, ATCC10541", "experimental": "as §2, §3"}, "E. faecalis SFZ": {"system": "E. faecalis SFZ", "assay": "MIC, microbroth dilution (NCCLS), Table 1", "assay_type": "cell-based", "conditions": "Enterococcus faecalis", "experimental": "as §2, §3"}, "E. faecalis Phillips": {"system": "E. faecalis Phillips", "assay": "MIC, microbroth dilution (NCCLS), Table 1", "assay_type": "cell-based", "conditions": "Enterococcus faecalis", "experimental": "as §2, §3"}, "E. faecalis 24592": {"system": "E. faecalis 24592", "assay": "MIC, microbroth dilution (NCCLS), Table 1", "assay_type": "cell-based", "conditions": "Enterococcus faecalis, 24592", "experimental": "as §2, §3"}, "E. faecalis ATCC 10541": {"system": "E. faecalis ATCC 10541", "assay": "Checkerboard microdilution MIC with PFOB, Table 2", "assay_type": "cell-based", "excerpt": "The aim of the study was to detect any synergy between PFOB and the other antibiotics. For the purposes of the study, synergy was defined in accordance with the FIC (fractional inhibitory concentration) index, as disclosed by Lorian (1991, In “Antibiotics in Laboratory Medicine” 3rd edition, Eds. Williams & Wilkins; esp. p 434-443)."}, "[1]": {"conditions": "Enterococcus faecalis, read-out: MIC (alone) of Partner"}}}
{"smiles": "O=C(O)[C@H]1/C(=C/CO)O[C@@H]2CC(=O)N21", "note": "[CA, clavulanic acid]", "values": [{"measurement": "synergy with PFOB", "setting": "enterococci", "value": "No synergy"}, {"measurement": "MIC", "setting": "VRE 1662", "value": "> 128", "unit": "µg/mL"}, {"measurement": "MIC", "setting": "VRE 300 1590", "value": "> 128", "unit": "µg/mL"}, {"measurement": "MIC", "setting": "VRE 300 2043", "value": "> 128", "unit": "µg/mL"}, {"measurement": "MIC", "setting": "VRE 300 1562", "value": "> 128", "unit": "µg/mL"}, {"measurement": "MIC of partner antibiotic in the presence of PFOB at 0.5 mg/L", "setting": "E. faecalis ATCC 29212; E. faecalis ATCC 29212, PFOB 0.5 mg/L", "value": ">64", "unit": "µg/mL"}, {"measurement": "MIC of partner antibiotic in the presence of PFOB at 1 mg/L", "setting": "E. faecalis ATCC 29212; E. faecalis ATCC 29212, PFOB 1 mg/L", "value": ">64", "unit": "µg/mL"}, {"measurement": "MIC of partner antibiotic in the presence of PFOB at 2 mg/L", "setting": "E. faecalis ATCC 29212; E. faecalis ATCC 29212, PFOB 2 mg/L", "value": ">64", "unit": "µg/mL"}, {"measurement": "MIC of partner antibiotic in the presence of PFOB at 4 mg/L", "setting": "E. faecalis ATCC 29212; E. faecalis ATCC 29212, PFOB 4 mg/L", "value": ">64", "unit": "µg/mL"}, {"measurement": "MIC of partner antibiotic in the presence of PFOB at 8 mg/L", "setting": "E. faecalis ATCC 29212; E. faecalis ATCC 29212, PFOB 8 mg/L", "value": ">64", "unit": "µg/mL"}, {"measurement": "MIC of partner antibiotic in the presence of PFOB at 16 mg/L", "setting": "E. faecalis ATCC 29212; E. faecalis ATCC 29212, PFOB 16 mg/L", "value": ">64", "unit": "µg/mL"}, {"measurement": "MIC of partner antibiotic in the presence of PFOB at 32 mg/L", "setting": "E. faecalis ATCC 29212; E. faecalis ATCC 29212, PFOB 32 mg/L", "value": ">64", "unit": "µg/mL"}, {"measurement": "MIC", "setting": "E. faecalis ATCC 29212; Enterococcus faecalis, ATCC29212, read-out: MIC (alone) of Partner", "value": "> 64", "unit": "µg/mL"}, {"measurement": "MIC of partner antibiotic in the presence of PFOB at 0.5 mg/L", "setting": "E. faecalis 5659 (vanA); E. faecalis 5659 (vanA), PFOB 0.5 mg/L", "value": ">64", "unit": "µg/mL"}, {"measurement": "MIC of partner antibiotic in the presence of PFOB at 1 mg/L", "setting": "E. faecalis 5659 (vanA); E. faecalis 5659 (vanA), PFOB 1 mg/L", "value": ">64", "unit": "µg/mL"}, {"measurement": "MIC of partner antibiotic in the presence of PFOB at 2 mg/L", "setting": "E. faecalis 5659 (vanA); E. faecalis 5659 (vanA), PFOB 2 mg/L", "value": ">64", "unit": "µg/mL"}, {"measurement": "MIC of partner antibiotic in the presence of PFOB at 4 mg/L", "setting": "E. faecalis 5659 (vanA); E. faecalis 5659 (vanA), PFOB 4 mg/L", "value": ">64", "unit": "µg/mL"}, {"measurement": "MIC of partner antibiotic in the presence of PFOB at 8 mg/L", "setting": "E. faecalis 5659 (vanA); E. faecalis 5659 (vanA), PFOB 8 mg/L", "value": ">64", "unit": "µg/mL"}, {"measurement": "MIC of partner antibiotic in the presence of PFOB at 16 mg/L", "setting": "E. faecalis 5659 (vanA); E. faecalis 5659 (vanA), PFOB 16 mg/L", "value": ">64", "unit": "µg/mL"}, {"measurement": "MIC of partner antibiotic in the presence of PFOB at 32 mg/L", "setting": "E. faecalis 5659 (vanA); E. faecalis 5659 (vanA), PFOB 32 mg/L", "value": ">64", "unit": "µg/mL"}, {"measurement": "MIC", "setting": "E. faecalis 5659 (vanA); [1]", "value": "> 64", "unit": "µg/mL"}, {"measurement": "MIC of partner antibiotic in the presence of PFOB at 0.5 mg/L", "setting": "E.faecalis 78097 (van B); E.faecalis 78097 (van B), PFOB 0.5 mg/L", "value": ">64", "unit": "µg/mL"}, {"measurement": "MIC of partner antibiotic in the presence of PFOB at 1 mg/L", "setting": "E.faecalis 78097 (van B); E.faecalis 78097 (van B), PFOB 1 mg/L", "value": ">64", "unit": "µg/mL"}, {"measurement": "MIC of partner antibiotic in the presence of PFOB at 2 mg/L", "setting": "E.faecalis 78097 (van B); E.faecalis 78097 (van B), PFOB 2 mg/L", "value": ">64", "unit": "µg/mL"}, {"measurement": "MIC of partner antibiotic in the presence of PFOB at 4 mg/L", "setting": "E.faecalis 78097 (van B); E.faecalis 78097 (van B), PFOB 4 mg/L", "value": ">64", "unit": "µg/mL"}, {"measurement": "MIC of partner antibiotic in the presence of PFOB at 8 mg/L", "setting": "E.faecalis 78097 (van B); E.faecalis 78097 (van B), PFOB 8 mg/L", "value": ">64", "unit": "µg/mL"}, {"measurement": "MIC of partner antibiotic in the presence of PFOB at 16 mg/L", "setting": "E.faecalis 78097 (van B); E.faecalis 78097 (van B), PFOB 16 mg/L", "value": ">64", "unit": "µg/mL"}, {"measurement": "MIC of partner antibiotic in the presence of PFOB at 32 mg/L", "setting": "E.faecalis 78097 (van B); E.faecalis 78097 (van B), PFOB 32 mg/L", "value": ">64", "unit": "µg/mL"}, {"measurement": "MIC", "setting": "E.faecalis 78097 (van B); [1]", "value": "> 64", "unit": "µg/mL"}, {"measurement": "effect on the MIC of CAZ", "setting": "Enterococcus strains; clavulanic acid added at 4 mg/L", "value": "no significant effect"}, {"measurement": "activity in isolation against the Enterococcus strains tested", "setting": "Enterococcus strains; compound alone, all strains of Table 1", "value": "inactive"}, {"measurement": "MIC", "setting": "E. faecalis NCTC 5957", "value": "> 128", "unit": "µg/mL"}, {"measurement": "MIC", "setting": "E. faecium NCTC 7171", "value": "> 128", "unit": "µg/mL"}, {"measurement": "MIC", "setting": "E. hirae ATCC 10541", "value": "> 128", "unit": "µg/mL"}, {"measurement": "MIC", "setting": "E. faecalis SFZ", "value": "> 128", "unit": "µg/mL"}, {"measurement": "MIC", "setting": "E. faecalis Phillips", "value": "> 128", "unit": "µg/mL"}, {"measurement": "MIC", "setting": "E. faecalis 24592", "value": "> 128", "unit": "µg/mL"}, {"measurement": "MIC of partner antibiotic in the presence of PFOB at 0.5 mg/L", "setting": "E. faecalis ATCC 10541; E. faecalis ATCC 10541, PFOB 0.5 mg/L", "value": ">64", "unit": "µg/mL"}, {"measurement": "MIC of partner antibiotic in the presence of PFOB at 1 mg/L", "setting": "E. faecalis ATCC 10541; E. faecalis ATCC 10541, PFOB 1 mg/L", "value": ">64", "unit": "µg/mL"}, {"measurement": "MIC of partner antibiotic in the presence of PFOB at 2 mg/L", "setting": "E. faecalis ATCC 10541; E. faecalis ATCC 10541, PFOB 2 mg/L", "value": ">64", "unit": "µg/mL"}, {"measurement": "MIC of partner antibiotic in the presence of PFOB at 4 mg/L", "setting": "E. faecalis ATCC 10541; E. faecalis ATCC 10541, PFOB 4 mg/L", "value": ">64", "unit": "µg/mL"}, {"measurement": "MIC of partner antibiotic in the presence of PFOB at 8 mg/L", "setting": "E. faecalis ATCC 10541; E. faecalis ATCC 10541, PFOB 8 mg/L", "value": ">64", "unit": "µg/mL"}, {"measurement": "MIC of partner antibiotic in the presence of PFOB at 16 mg/L", "setting": "E. faecalis ATCC 10541; E. faecalis ATCC 10541, PFOB 16 mg/L", "value": ">64", "unit": "µg/mL"}, {"measurement": "MIC of partner antibiotic in the presence of PFOB at 32 mg/L", "setting": "E. faecalis ATCC 10541; E. faecalis ATCC 10541, PFOB 32 mg/L", "value": ">64", "unit": "µg/mL"}, {"measurement": "MIC", "setting": "E. faecalis ATCC 10541; Enterococcus faecalis, ATCC10541, read-out: MIC (alone) of Partner", "value": "> 64", "unit": "µg/mL"}]}
